The record followed here is ChEMBL document CHEMBL1136178, “Carbonic anhydrase inhibitors: topically acting antiglaucoma sulfonamides incorporating esters and amides of 3- and 4-carboxybenzolamide” (Bioorg Med Chem Lett, 2003).

For assay [1], the target named is T1, Carbonic anhydrase 4 (Bos taurus, UniProt Q95323).
T1 sequence (Q95323 whole entry): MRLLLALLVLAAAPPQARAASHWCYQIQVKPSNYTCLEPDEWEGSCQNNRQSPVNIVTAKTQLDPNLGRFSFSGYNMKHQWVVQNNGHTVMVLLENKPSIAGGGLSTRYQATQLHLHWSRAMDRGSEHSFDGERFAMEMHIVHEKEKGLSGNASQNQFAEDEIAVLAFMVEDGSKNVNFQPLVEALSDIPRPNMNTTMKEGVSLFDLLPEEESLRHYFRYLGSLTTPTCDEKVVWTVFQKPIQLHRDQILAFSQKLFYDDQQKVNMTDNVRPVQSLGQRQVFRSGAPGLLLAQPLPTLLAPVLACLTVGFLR
Description: Inhibitory activity against Carbonic anhydrase IV isolated from bovine lung

Assay [2] has as its target Carbonic anhydrase 2 (Homo sapiens, UniProt P00918).
Description: Inhibitory activity against human carbonic anhydrase II
Assay [3] concerns the target Carbonic anhydrase 1 (Homo sapiens, UniProt P00915).
Description: Inhibitory activity against human carbonic anhydrase I (hCA I)
For assay [4], the species on record is Oryctolagus cuniculus.
Description: Fall of intraocular pressure (IOP) after treatment with 50 ug into normotensive rabbit at time interval 30 min at a pH of 7
The species entered for assay [5] is Oryctolagus cuniculus. The source holds these as a separate data set.
Description: Fall of intraocular pressure (IOP) after treatment with 50 ug into normotensive rabbit at time interval 60 min at a pH of 7
The species entered for assay [6] is Oryctolagus cuniculus. This is another data set of the same source.
Description: Fall of intraocular pressure (IOP) after treatment with 50 ug into normotensive rabbit at time interval 90 min at a pH of 7
For assay [7], the species on record is Oryctolagus cuniculus. The source holds these as a separate data set.
Description: Fall of intraocular pressure (IOP) after treatment with 50 ug into normotensive rabbit at time interval 240 min at a pH of 7

Chain of Carbonic anhydrase 1 (P00915 whole entry): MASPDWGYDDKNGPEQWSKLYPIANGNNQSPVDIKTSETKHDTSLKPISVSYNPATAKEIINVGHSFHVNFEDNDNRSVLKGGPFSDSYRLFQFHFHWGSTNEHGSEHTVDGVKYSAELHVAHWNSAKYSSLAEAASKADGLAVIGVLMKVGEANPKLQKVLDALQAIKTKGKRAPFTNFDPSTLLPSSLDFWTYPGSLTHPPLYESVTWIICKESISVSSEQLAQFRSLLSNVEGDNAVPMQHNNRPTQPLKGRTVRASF

As for `CN(C)CCOCCOC(=O)c1cccc(S(=O)(=O)/N=c2/sc(S(N)(=O)=O)nn2C)c1`, the Ki (as a rule, a measure of affinity in units of concentration, obtained from inhibition or displacement) in assay [1] amounted to 8 nM; in assay [2], 2 nM; in assay [3], 15 nM.
For the compound `Cn1nc(S(N)(=O)=O)s/c1=N/S(=O)(=O)c1cccc(C(=O)OCCO)c1`, the figures for the inhibitory constant (Ki) in assay [1], in assay [2] and in assay [3] were 10 nM, 5.2 nM and 23 nM, respectively.
In the case of `CCN(CC)CCNC(=O)c1ccc(S(=O)(=O)Nc2nnc(S(N)(=O)=O)s2)cc1`, the inhibition constant (Ki) in assay [1] is […]; in assay [3], […].
For the compound `CC(=O)/N=c1/sc(S(N)(=O)=O)nn1C` [METHAZOLAMIDE], in assay [1], the Ki turned out to be 145 nM.
As to `CN(C)CCOC(=O)c1ccc(S(=O)(=O)Nc2nnc(S(N)(=O)=O)s2)cc1`, the inhibition constant (Ki) is 10 nM in assay [1], 1.5 nM in assay [2] and 11 nM in assay [3]. For the same compound, the “Delta IOP” value in assay [4] stood at 4.5 mmHg; in assay [5], 5.5 mmHg; in assay [6], 8 mmHg; in assay [7], 7.6 mmHg.
With `COCCOC(=O)c1ccc(S(=O)(=O)Nc2nnc(S(N)(=O)=O)s2)cc1`, the Ki in assay [1] came to 10 nM; in assay [2], 2.8 nM; in assay [3], 12 nM.
As to `CN(C)CCOCCOC(=O)c1cccc(S(=O)(=O)Nc2nnc(S(N)(=O)=O)s2)c1`, the figures for the inhibition constant (Ki) in assay [1], in assay [2] and in assay [3] were 6 nM, 1.6 nM and 13 nM, respectively. Also, the “Delta IOP” value in assay [4] was determined as 4.9 mmHg; in assay [5], 4.5 mmHg; in assay [6], 4.1 mmHg; in assay [7] it was 3.3 mmHg.
On to `CN(C)CCOC(=O)c1cccc(S(=O)(=O)Nc2nnc(S(N)(=O)=O)s2)c1`, for which the Ki came to 7 nM in assay [1], 2.1 nM in assay [2] and 15 nM in assay [3]. Moreover, the “Delta IOP” value in assay [4] is given as 4.5 mmHg; in assay [5], 4.9 mmHg; in assay [6], 7.1 mmHg; in assay [7], 5.7 mmHg.
With `CCN(CC)CCNC(=O)c1ccc(S(=O)(=O)/N=c2/sc(S(N)(=O)=O)nn2C)cc1`, the Ki in assay [1] worked out at 8 nM; in assay [2], 1.7 nM; in assay [3], 12 nM.
On the same counts, the results for `Cn1nc(S(N)(=O)=O)s/c1=N/S(=O)(=O)c1ccc(C(=O)OCCO)cc1` are 14 nM, 4 nM and 20 nM.
On the same counts, the results for `CC(CN(C)C)OC(=O)c1cccc(S(=O)(=O)/N=c2/sc(S(N)(=O)=O)nn2C)c1` (stereo unspecified) are 12 nM, 2.2 nM and 18 nM.
Consider `CC(CN(C)C)OC(=O)c1cccc(S(=O)(=O)Nc2nnc(S(N)(=O)=O)s2)c1` (stereo unspecified), for which the Ki in assay [1] came to 8 nM; in assay [2] it was 2 nM; in assay [3], 17 nM. In addition, the “Delta IOP” value in assay [4] was found to be 2.5 mmHg; in assay [5], 6.7 mmHg; in assay [6], 8.5 mmHg; in assay [7] it was 7.9 mmHg.
Regarding `COCCOC(=O)c1cccc(S(=O)(=O)Nc2nnc(S(N)(=O)=O)s2)c1`, the inhibitory constant (Ki) in assay [1] came to 8 nM; in assay [2] it was 2.9 nM; in assay [3] it was 15 nM. Besides, the “Delta IOP” value was 6 mmHg in assay [4], 2.5 mmHg in assay [5], 2 mmHg in assay [6] and 0 mmHg in assay [7].
Consider `NS(=O)(=O)c1nnc(NS(=O)(=O)c2cccc(C(=O)OCCO)c2)s1`, for which the results for the inhibitory constant (Ki) in assay [1], in assay [2] and in assay [3] were 8 nM, 3.1 nM and 16 nM, respectively. The “Delta IOP” value in assay [4] is reported as 10.5 mmHg; in assay [5] it was 4.8 mmHg; in assay [6] it was 2.8 mmHg; in assay [7], 0.5 mmHg.
As for `CC(CN(C)C)OC(=O)c1ccc(S(=O)(=O)/N=c2/sc(S(N)(=O)=O)nn2C)cc1` (stereo unspecified), the figures for the Ki in assay [1], in assay [2] and in assay [3] were 13 nM, 1.8 nM and 15 nM, respectively.
On the same counts, the results for `NS(=O)(=O)c1nnc(NS(=O)(=O)c2ccc(C(=O)OCCO)cc2)s1` are 11 nM, 2.9 nM and 14 nM.
On the same counts, the results for `Cn1nc(S(N)(=O)=O)s/c1=N/S(=O)(=O)c1cccc(C(=O)O)c1` are 15 nM, 5.9 nM and 73 nM.
As to `NS(=O)(=O)c1nnc(NS(=O)(=O)c2cccc(C(=O)O)c2)s1`, the Ki in assay [1] is 13 nM; in assay [2], 5.1 nM; in assay [3], 68 nM.
On the same counts, the results for `NS(=O)(=O)c1nnc(NS(=O)(=O)c2ccc(C(=O)O)cc2)s1` are 12 nM, 4.6 nM and 45 nM.
On the same counts, the results for `CCN(CC)CCNC(=O)c1cccc(S(=O)(=O)/N=c2/sc(S(N)(=O)=O)nn2C)c1` are 7 nM, 1.9 nM and 16 nM.
As for `CN(C)CCOC(=O)c1cccc(S(=O)(=O)/N=c2/sc(S(N)(=O)=O)nn2C)c1`, the figures for the Ki in assay [1], in assay [2] and in assay [3] were 10 nM, 2.9 nM and 16 nM, respectively.
On the same counts, the results for `COCCOC(=O)c1cccc(S(=O)(=O)/N=c2/sc(S(N)(=O)=O)nn2C)c1` are 9 nM, 3.3 nM and 17 nM.
On the same counts, the results for `Cn1nc(S(N)(=O)=O)s/c1=N/S(=O)(=O)c1ccc(C(=O)O)cc1` are 14 nM, 5.4 nM and 50 nM.
Turning to `CC(CN(C)C)OC(=O)c1ccc(S(=O)(=O)Nc2nnc(S(N)(=O)=O)s2)cc1` (stereo unspecified), the figures for the inhibition constant Ki in assay [1], in assay [2] and in assay [3] were 10 nM, 1.4 nM and 13 nM, respectively. The “Delta IOP” value is 4.8 mmHg in assay [4], 5.9 mmHg in assay [5], 8.2 mmHg in assay [6] and 8 mmHg in assay [7].
For the compound `CN(C)CCOCCOC(=O)c1ccc(S(=O)(=O)/N=c2/sc(S(N)(=O)=O)nn2C)cc1`, the results for the Ki in assay [1], in assay [2] and in assay [3] were 9 nM, 1.7 nM and 13 nM, respectively.
In turn, `NS(=O)(=O)c1nnc(NS(=O)(=O)c2ccccc2)s1` [BENZOLAMIDE] displayed an inhibition constant Ki in assay [1] of 12 nM.
Take `CN(C)CCOC(=O)c1ccc(S(=O)(=O)/N=c2/sc(S(N)(=O)=O)nn2C)cc1`: the values for the Ki in assay [1], in assay [2] and in assay [3] were 14 nM, 2.4 nM and 13 nM, respectively.
Regarding `CN(C)CCOCCOC(=O)c1ccc(S(=O)(=O)Nc2nnc(S(N)(=O)=O)s2)cc1`, the Ki is 7 nM in assay [1], 1.3 nM in assay [2] and 12 nM in assay [3]. For the same compound, the “Delta IOP” value was 2.7 mmHg in assay [4], 3.9 mmHg in assay [5], 5.7 mmHg in assay [6] and 6.3 mmHg in assay [7].
Regarding `CCN(CC)CCNC(=O)c1cccc(S(=O)(=O)Nc2nnc(S(N)(=O)=O)s2)c1`, the Ki in assay [1] came out at 7 nM; in assay [2] it was 1.7 nM; in assay [3], 14 nM. Moreover, the “Delta IOP” value in assay [4] was found to be 6.5 mmHg; in assay [5], 6.9 mmHg; in assay [6] it was 9.1 mmHg; in assay [7], 8 mmHg.
As for `COCCOC(=O)c1ccc(S(=O)(=O)/N=c2/sc(S(N)(=O)=O)nn2C)cc1`, the inhibition constant Ki stood at 12 nM in assay [1], 3.1 nM in assay [2] and 16 nM in assay [3].
